This note sets out measurements from patent publication US9969752B2, “Inhibitors of HIF prolyl hydroxylase” (MERCK SHARP & DOHME CORP., priority 2014, dated 2018).

T1 sequence (Q9GZT9 whole entry): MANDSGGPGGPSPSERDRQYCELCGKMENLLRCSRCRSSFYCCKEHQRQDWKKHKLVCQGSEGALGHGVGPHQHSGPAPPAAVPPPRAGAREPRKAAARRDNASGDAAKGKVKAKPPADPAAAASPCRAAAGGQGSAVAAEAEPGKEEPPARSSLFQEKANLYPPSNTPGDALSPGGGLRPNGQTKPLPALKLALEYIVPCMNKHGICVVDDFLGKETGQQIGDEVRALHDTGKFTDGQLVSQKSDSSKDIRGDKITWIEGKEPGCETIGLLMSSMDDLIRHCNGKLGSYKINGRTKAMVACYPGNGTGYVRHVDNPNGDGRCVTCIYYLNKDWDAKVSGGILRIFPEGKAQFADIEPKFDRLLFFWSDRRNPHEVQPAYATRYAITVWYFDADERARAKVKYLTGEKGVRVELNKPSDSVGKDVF

The first test addresses T1, Human HIF-PHD2 (Homo sapiens, UniProt Q9GZT9).
T1 construct: FLAG-tagged full length PHD2 expressed in and purified from baculovirus-infected Sf9 cells; FLAG; made in house; host or cells: baculovirus-infected Sf9 cells
As to the kind of experiment: Inhibition of the hydroxylation of a HIF peptide by PHD2 (time resolved fluorescence, 384-well). The following applies: FLAG-tagged full length PHD2; 0.2 μM 2-oxoglutarate, 0.5 μM HIF-1α peptide; 45 minutes at room temperature; read-out: Human HIF-PHD2 IC50. Type of test: biochemical. As for the experimental part:
To each well of a 384-well plate, 1 μL of test compounds in DMSO (final concentration ranging from 0.3 nM to 10 uM) were added into 20 μl of assay buffer (50 mM Tris pH 7.4/0.01% Tween-20/0.1 mg/ml bovine serum albumin/10 μM ferrous sulfate/1 mM sodium ascorbate/20 μg/ml catalase) containing 0.15 μg/ml FLAG-tagged full length PHD2 expressed in and purified from baculovirus-infected Sf9 cells. After a 5 min preincubation at room temperature, the enzymatic reactions were initiated by the addition of 4 μL of substrates {final concentrations of 0.2 μM 2-oxoglutarate and 0.5 μM HIF-1α peptide biotinyl-[…] […] After incubation for 45 minutes at room temperature, the reactions were terminated by the addition of a 25 μL quench/detection mix to a final concentration of 1 mM ortho-phenanthroline, 0.1 mM EDTA, 0.5 nM anti-(His)6 LANCE reagent (Perkin-Elmer Life Sciences), 100 nM AF647-labeled streptavidin (Invitrogen), and 2 μg/ml (His)6-VHL complex {S. Tan Protein Expr. Purif.
Turning to `O=C(O)CNC(=O)c1c(O)c2c(OC(F)(F)F)ccc3c2n(c1=O)CC(c1ccc(C(F)(F)F)cc1)O3` (single isomer, unassigned) [Example 86, 2-(7-Hydroxy-5-oxo-8-(trifluoromethoxy)-2-(4-(trifluoromethyl)phenyl)-3,5-dihydro-2H-[1,4]oxazino[2,3,4-ij]quinoline-6-carboxamido)acetic acid], the IC50 worked out at 14 nM.
Same read-out and setting: under `N#Cc1ccc(C2Cn3c(=O)c(C(=O)NCC(=O)O)c(O)c4c(OC(F)(F)F)ccc(c43)O2)cc1` (single isomer, unassigned) [Example 88, 2-(2-(4-Cyanophenyl)-7-hydroxy-5-oxo-8-(trifluoromethoxy)-3,5-dihydro-2H-[1,4]oxazino[2,3,4-ij]quinoline-6-carboxamido)acetic acid] stands 8.5 nM; under `O=C(O)CNC(=O)c1c(O)c2cccc3c2n(c1=O)C(c1ccccc1)CC3` (single isomer, unassigned) [Example 130, 2-(1-Hydroxy-3-oxo-5-phenyl-3,5,6,7-tetrahydropyrido[3,2,1-ij]quinoline-2-carboxamido)acetic acid], 18 nM; under `O=C(O)CNC(=O)c1c(O)c2cccc3c2n(c1=O)C(Cc1ccc(C(F)(F)F)cc1)CO3` (stereo not shown) [Example 3, 2-(7-Hydroxy-5-oxo-3-(4-(trifluoromethyl)benzyl)-3,5-dihydro-2H-[1,4]oxazino[2,3,4-ij]quinoline-6-carboxamido)acetic acid], 21 nM.
Still for that read-out and setting: under `N#Cc1cc2c3c(c1)c(O)c(C(=O)NCC(=O)O)c(=O)n3C(Cc1ccc(C(F)(F)F)cc1)CO2` (stereo not shown) [Example 4, 2-(9-Cyano-7-hydroxy-5-oxo-3-(4-(trifluoromethyl)benzyl)-3,5-dihydro-2H-[1,4]oxazino[2,3,4-ij]quinoline-6-carboxamido)acetic acid] stands 3 nM.
On to `O=C(O)CNC(=O)c1c(O)c2cc(Br)cc3c2n(c1=O)C(Cc1ccc(C(F)(F)F)cc1)CO3` (stereo not shown) [Example 5, 2-(9-Bromo-7-hydroxy-5-oxo-3-(4-(trifluoromethyl)benzyl)-3,5-dihydro-2H-[1,4]oxazino[2,3,4-ij]quinoline-6-carboxamido)acetic acid], for which the IC50 was determined as 18 nM.
On the same count and under the same terms, next, `CS(=O)(=O)c1cc2c3c(c1)c(O)c(C(=O)NCC(=O)O)c(=O)n3C(Cc1ccc(C(F)(F)F)cc1)CO2` (stereo not shown) [Example 6, 2-(7-Hydroxy-9-(methylsulfonyl)-5-oxo-3-(4-(trifluoromethyl)benzyl)-3,5-dihydro-2H-[1,4]oxazino[2,3,4-ij]quinoline-6-carboxamido)acetic acid]: 1.7 nM; `Cc1cc2c3c(c1)c(O)c(C(=O)NCC(=O)O)c(=O)n3C(Cc1ccc(C(F)(F)F)cc1)CO2` (stereo not shown) [Example 7, 2-(7-hydroxy-9-methyl-5-oxo-3-(4-(trifluoromethyl)benzyl)-3,5-dihydro-2H-[1,4]oxazino[2,3,4-ij]quinoline-6-carboxamido)acetic acid]: 37 nM; `CC(O)(CO)c1cc2c3c(c1)c(O)c(C(=O)NCC(=O)O)c(=O)n3C(Cc1ccc(C(F)(F)F)cc1)CO2` (stereo not shown) [Example 8, 2-(9-(1,2-Dihydroxypropan-2-yl)-7-hydroxy-5-oxo-3-(4-(trifluoromethyl)benzyl)-3,5-dihydro-2H-[1,4]oxazino[2,3,4-ij]quinoline-6-carboxamido)acetic acid]: 30 nM.
Turning to `O=C(O)CNC(=O)c1c(O)c2cccc3c2n(c1=O)CC(c1ccc(C(F)(F)F)cc1)C3` (stereo not shown) [Example 9, 2-(1-Hydroxy-3-oxo-6-(4-(trifluoromethyl)phenyl)-3,5,6,7-tetrahydropyrido[3,2,1-ij]quinoline-2-carboxamido)acetic acid], the IC50 stood at 7.2 nM.
With `O=C(O)CNC(=O)c1c(O)c2cccc3c2n(c1=O)CC(c1ccc(C(F)(F)F)cc1)O3` (stereo not shown) [Example 10, 2-(7-Hydroxy-5-oxo-2-(4-(trifluoromethyl)phenyl)-3,5-dihydro-2H-[1,4]oxazino[2,3,4-ij]quinoline-6-carboxamido)acetic acid], the IC50 turned out to be 6.4 nM.
Still for that read-out and setting: under `O=C(O)CNC(=O)c1c(O)c2c(Br)ccc3c2n(c1=O)CC(c1ccc(C(F)(F)F)cc1)O3` (stereo not shown) [Example 11, 2-(8-Bromo-7-hydroxy-5-oxo-2-(4-(trifluoromethyl)phenyl)-3,5-dihydro-2H-[1,4]oxazino[2,3,4-ij]quinoline-6-carboxamido)acetic acid] stands 2.6 nM; under `CS(=O)(=O)c1ccc2c3c1c(O)c(C(=O)NCC(=O)O)c(=O)n3CC(c1ccc(C(F)(F)F)cc1)O2` (stereo not shown) [Example 12, 2-(7-Hydroxy-8-(methylsulfonyl)-5-oxo-2-(4-(trifluoromethyl)phenyl)-3,5-dihydro-2H-[1,4]oxazino[2,3,4-ij]quinoline-6-carboxamido)acetic acid], 19 nM; under `N#Cc1ccc2c3c1c(O)c(C(=O)NCC(=O)O)c(=O)n3CC(c1ccc(C(F)(F)F)cc1)O2` (stereo not shown) [Example 13, 2-(8-Cyano-7-hydroxy-5-oxo-2-(4-(trifluoromethyl)phenyl)-3,5-dihydro-2H-[1,4]oxazino[2,3,4-ij]quinoline-6-carboxamido)acetic acid], 1 nM.
Same read-out and setting: under `O=C(O)CNC(=O)c1c(O)c2cc(Br)cc3c2n(c1=O)CC(c1ccc(C(F)(F)F)cc1)O3` (stereo not shown) [Example 16, 2-(9-Bromo-7-hydroxy-5-oxo-2-(4-(trifluoromethyl)phenyl)-3,5-dihydro-2H-[1,4]oxazino[2,3,4-ij]quinoline-6-carboxamido)acetic acid] stands 4.4 nM; under `Cc1cc2c3c(c1)c(O)c(C(=O)NCC(=O)O)c(=O)n3CC(c1ccc(C(F)(F)F)cc1)O2` (stereo not shown) [Example 19, 2-(7-Hydroxy-9-methyl-5-oxo-2-(4-(trifluoromethyl)phenyl)-3,5-dihydro-2H-[1,4]oxazino[2,3,4-ij]quinoline-6-carboxamido)acetic acid], 5.6 nM; under `O=C(O)CNC(=O)c1c(O)c2ccc(Br)c3c2n(c1=O)CC(c1ccc(C(F)(F)F)cc1)O3` (stereo not shown) [Example 22, 2-(10-Bromo-7-hydroxy-5-oxo-2-(4-(trifluoromethyl)phenyl)-3,5-dihydro-2H-[1,4]oxazino[2,3,4-ij]quinoline-6-carboxamido)acetic acid], 2.3 nM.
The same measure, in the same setting: next, `Cc1ccc2c(O)c(C(=O)NCC(=O)O)c(=O)n3c2c1OC(c1ccc(C(F)(F)F)cc1)C3` (stereo not shown) [Example 25, 2-(7-Hydroxy-10-methyl-5-oxo-2-(4-(trifluoromethyl)phenyl)-3,5-dihydro-2H-[1,4]oxazino[2,3,4-ij]quinoline-6-carboxamido)acetic acid]: 5.4 nM.
In the case of `O=C(O)CNC(=O)c1c(O)c2c(Br)ccc3c2n(c1=O)C(Cc1ccc(C(F)(F)F)cc1)CO3` (stereo not shown) [Example 26, 2-(8-bromo-7-hydroxy-5-oxo-3-(4-(trifluoromethyl)benzyl)-3,5-dihydro-2H-[1,4]oxazino[2,3,4-ij]quinoline-6-carboxamido)acetic acid], the IC50 was 8.1 nM.
Consider `O=C(O)CNC(=O)c1c(O)c2ccc(Br)c3c2n(c1=O)C(Cc1ccc(C(F)(F)F)cc1)CO3` (stereo not shown) [Example 27, 2-(10-Bromo-7-hydroxy-5-oxo-3-(4-(trifluoromethyl)benzyl)-3,5-dihydro-2H-[1,4]oxazino[2,3,4-ij]quinoline-6-carboxamido)acetic acid], for which the IC50 came out at 5.7 nM.
As to `CS(=O)(=O)c1ccc2c3c1c(O)c(C(=O)NCC(=O)O)c(=O)n3C(Cc1ccc(C(F)(F)F)cc1)CO2` (stereo not shown) [Example 28, 2-(7-Hydroxy-8-(methylsulfonyl)-5-oxo-3-(4-(trifluoromethyl)benzyl)-3,5-dihydro-2H-[1,4]oxazino[2,3,4-ij]quinoline-6-carboxamido)acetic acid], the IC50 stood at 42 nM.
Consider `N#Cc1ccc2c3c1c(O)c(C(=O)NCC(=O)O)c(=O)n3C(Cc1ccc(C(F)(F)F)cc1)CO2` (stereo not shown) [Example 29, 2-(8-Cyano-7-hydroxy-5-oxo-3-(4-(trifluoromethyl)benzyl)-3,5-dihydro-2H-[1,4]oxazino[2,3,4-ij]quinoline-6-carboxamido)acetic acid], for which the IC50 amounted to 1.3 nM.

Still in this test, the particulars now being: FLAG-tagged full length PHD2; 0.2 μM 2-oxoglutarate, 0.5 μM HIF-1α peptide; 45 minutes at room temperature; read-out: MS m/z (M + 1)+ and human HIF-PHD2 IC50.
As to `N#Cc1ccc(C2Cn3c(=O)c(C(=O)NCC(=O)O)c(O)c4ccc(C(F)(F)F)c(c43)O2)cc1` (single isomer, unassigned) [Example 78, 2-(2-(4-cyanophenyl)-7-hydroxy-10-(trifluoromethyl)-3,5-dihydro-2H-[1,4]oxazino[2,3,4-ij]quinoline-6-carboxamido)acetic acid], the IC50 was found to be 7.9 nM.
Take `O=C(O)CNC(=O)c1c(O)c2c(OC(F)(F)F)ccc3c2n(c1=O)CC(c1ccc(C(F)(F)F)cc1)O3` (single isomer, unassigned) [Example 87, 2-(7-hydroxy-5-oxo-8-(trifluoromethoxy)-2-(4-(trifluoromethyl)phenyl)-3,5-dihydro-2H-[1,4]oxazino[2,3,4-ij]quinoline-6-carboxamido)acetic acid]: the IC50 was determined as 17 nM.
`N#Cc1ccc(C2Cn3c(=O)c(C(=O)NCC(=O)O)c(O)c4c(OC(F)(F)F)ccc(c43)O2)cc1` (single isomer, unassigned) [Example 89, 2-(2-(4-cyanophenyl)-7-hydroxy-5-oxo-8-(trifluoromethoxy)-3,5-dihydro-2H-[1,4]oxazino[2,3,4-ij]quinoline-6-carboxamido)acetic acid]: the IC50 came to 34 nM.
